Experimental data published in the NIST ThermoML archive (doi:10.1016/j.fluid.2017.12.001).

Assay: xn = mol fraction of the nth substance listed
Conditions: 100.9 kPa, Liquid; for viscosity: Concentric cylinders viscometry; for speed of sound: Single path-length method; for mass density: Vibrating tube method

CCCC(=O)[O-].CC[NH2+]CC [diethylammonium butanoate] + O
Conditions | mass density [kg/m3] | speed of sound [m/s] | viscosity [mPa·s]
283.15 K, x1 = 0.0122 | – | – | 2.24
283.15 K, x1 = 0.0123 | 1003.65 | 1576.3 | –
283.15 K, x1 = 0.0451 | – | – | 6.91
283.15 K, x1 = 0.0453 | 1013.08 | 1794.6 | –
283.15 K, x1 = 0.0999 | – | – | 19.26
283.15 K, x1 = 0.1005 | 1011.54 | 1814.6 | –
283.15 K, x1 = 0.143 | – | – | 32.03
283.15 K, x1 = 0.1439 | 1001.71 | 1786.4 | –
283.15 K, x1 = 0.2051 | – | – | 56.72
283.15 K, x1 = 0.2067 | 989.91 | 1733.5 | –
283.15 K, x1 = 0.3064 | – | – | 106.48
283.15 K, x1 = 0.3096 | 976.25 | – | –
283.15 K, x1 = 0.4879 | – | – | 158.58
283.15 K, x1 = 0.4951 | 956.67 | 1577.4 | –
283.15 K, x1 = 0.6684 | – | – | 158.29
283.15 K, x1 = 0.6812 | 941.81 | 1516.2 | –
283.15 K, x1 = 0.7974 | 930.25 | 1494.8 | –
283.15 K, x1 = 0.974 | 925.8 | 1460.5 | 130.18
285.65 K, x1 = 0.0122 | – | – | 2.07
285.65 K, x1 = 0.0451 | – | – | 6.16
285.65 K, x1 = 0.0999 | – | – | 16.84
285.65 K, x1 = 0.143 | – | – | 27.94
285.65 K, x1 = 0.2051 | – | – | 49.1
285.65 K, x1 = 0.3064 | – | – | 91.1
285.65 K, x1 = 0.4879 | – | – | 135.58
285.65 K, x1 = 0.6684 | – | – | 135.69
285.65 K, x1 = 0.974 | – | – | 112.13
288.15 K, x1 = 0.0122 | – | – | 1.91
288.15 K, x1 = 0.0123 | 1002.55 | 1586.3 | –
288.15 K, x1 = 0.0451 | – | – | 5.5
288.15 K, x1 = 0.0453 | 1010.64 | 1786.6 | –
288.15 K, x1 = 0.0999 | – | – | 14.79
288.15 K, x1 = 0.1005 | 1007.9 | 1802.4 | –
288.15 K, x1 = 0.143 | – | – | 24.41
288.15 K, x1 = 0.1439 | 996.76 | 1773 | –
288.15 K, x1 = 0.2051 | – | – | 42.55
288.15 K, x1 = 0.2067 | 985.95 | 1718.7 | –
288.15 K, x1 = 0.3064 | – | – | 78.15
288.15 K, x1 = 0.3096 | 972.8 | – | –
288.15 K, x1 = 0.4879 | – | – | 116.04
288.15 K, x1 = 0.4951 | 952.3 | 1561.4 | –
288.15 K, x1 = 0.6684 | – | – | 116.61
288.15 K, x1 = 0.6812 | 938.34 | 1499.7 | –
288.15 K, x1 = 0.7974 | 926.65 | 1479.8 | –
288.15 K, x1 = 0.974 | 922.1 | 1448.3 | 96.9
290.65 K, x1 = 0.0122 | – | – | 1.77
290.65 K, x1 = 0.0451 | – | – | 4.96
290.65 K, x1 = 0.0999 | – | – | 13.09
290.65 K, x1 = 0.143 | – | – | 21.48
290.65 K, x1 = 0.2051 | – | – | 37.08
290.65 K, x1 = 0.3064 | – | – | 67.44
290.65 K, x1 = 0.4879 | – | – | 99.81
290.65 K, x1 = 0.6684 | – | – | 100.54
290.65 K, x1 = 0.974 | – | – | 84.07
293.15 K, x1 = 0.0122 | – | – | 1.64
293.15 K, x1 = 0.0123 | 1001.45 | 1594.8 | –
293.15 K, x1 = 0.0451 | – | – | 4.49
293.15 K, x1 = 0.0453 | 1008.2 | 1779.5 | –
293.15 K, x1 = 0.0999 | – | – | 11.64
293.15 K, x1 = 0.1005 | 1004.13 | 1789.3 | –
293.15 K, x1 = 0.143 | – | – | 18.97
293.15 K, x1 = 0.1439 | 992.35 | 1759.3 | –
293.15 K, x1 = 0.2051 | – | – | 32.47
293.15 K, x1 = 0.2067 | 984.2 | 1705.2 | –
293.15 K, x1 = 0.3064 | – | – | 58.44
293.15 K, x1 = 0.3096 | 969.35 | 1629.1 | –
293.15 K, x1 = 0.4879 | – | – | 86.09
293.15 K, x1 = 0.4951 | 949.58 | 1539.3 | –
293.15 K, x1 = 0.6684 | – | – | 87.06
293.15 K, x1 = 0.6812 | 937.26 | 1485.3 | –
293.15 K, x1 = 0.7974 | 923.05 | 1464.7 | –
293.15 K, x1 = 0.974 | 918.5 | 1433.9 | 73.19
295.65 K, x1 = 0.0122 | – | – | 1.53
295.65 K, x1 = 0.0451 | – | – | 4.05
295.65 K, x1 = 0.0999 | – | – | 10.38
295.65 K, x1 = 0.143 | – | – | 16.84
295.65 K, x1 = 0.2051 | – | – | 28.55
295.65 K, x1 = 0.3064 | – | – | 50.88
295.65 K, x1 = 0.4879 | – | – | 74.58
295.65 K, x1 = 0.6684 | – | – | 75.69
295.65 K, x1 = 0.974 | – | – | 63.97
298.15 K, x1 = 0.0122 | – | – | 1.43
298.15 K, x1 = 0.0123 | 1000.1 | 1601.8 | –
298.15 K, x1 = 0.0451 | – | – | 3.69
298.15 K, x1 = 0.0453 | 1005.56 | 1770.9 | –
298.15 K, x1 = 0.0999 | – | – | 9.31
298.15 K, x1 = 0.1005 | 1000.56 | 1776.6 | –
298.15 K, x1 = 0.143 | – | – | 15.02
298.15 K, x1 = 0.1439 | 988.22 | 1745.3 | –
298.15 K, x1 = 0.2051 | – | – | 25.19
298.15 K, x1 = 0.2067 | 979.99 | 1690.3 | –
298.15 K, x1 = 0.3064 | – | – | 44.32
298.15 K, x1 = 0.3096 | 965.6 | 1613.5 | –
298.15 K, x1 = 0.4879 | – | – | 64.82
298.15 K, x1 = 0.4951 | 945.79 | 1523.9 | –
298.15 K, x1 = 0.6684 | – | – | 66.04
298.15 K, x1 = 0.6812 | 933.71 | 1468.9 | –
298.15 K, x1 = 0.7974 | 919.45 | 1455.8 | –
298.15 K, x1 = 0.974 | 914.7 | 1417.5 | 56.14
300.65 K, x1 = 0.0122 | – | – | 1.34
300.65 K, x1 = 0.0451 | – | – | 3.36
300.65 K, x1 = 0.0999 | – | – | 8.4
300.65 K, x1 = 0.143 | – | – | 13.44
300.65 K, x1 = 0.2051 | – | – | 22.34
300.65 K, x1 = 0.3064 | – | – | 38.93
300.65 K, x1 = 0.4879 | – | – | 56.68
300.65 K, x1 = 0.6684 | – | – | 57.86
300.65 K, x1 = 0.974 | – | – | 49.5
303.15 K, x1 = 0.0122 | – | – | 1.26
303.15 K, x1 = 0.0123 | 998.8 | 1607.5 | –
303.15 K, x1 = 0.0451 | – | – | 3.08
303.15 K, x1 = 0.0453 | 1002.83 | 1762.1 | –
303.15 K, x1 = 0.0999 | – | – | 7.62
303.15 K, x1 = 0.1005 | 997.23 | 1763.5 | –
303.15 K, x1 = 0.143 | – | – | 12.08
303.15 K, x1 = 0.1439 | 984.45 | 1731.1 | –
303.15 K, x1 = 0.2051 | – | – | 19.91
303.15 K, x1 = 0.2067 | 976.3 | 1675.2 | –
303.15 K, x1 = 0.3064 | – | – | 34.33
303.15 K, x1 = 0.3096 | 960.9 | 1597.6 | –
303.15 K, x1 = 0.4879 | – | – | 49.68
303.15 K, x1 = 0.4951 | 941.96 | 1509.1 | –
303.15 K, x1 = 0.6684 | – | – | 50.88
303.15 K, x1 = 0.6812 | 930.52 | 1452.3 | –
303.15 K, x1 = 0.7974 | 915.75 | 1439.9 | –
303.15 K, x1 = 0.974 | 910.9 | 1400.2 | 43.73
305.65 K, x1 = 0.0122 | – | – | 1.19
305.65 K, x1 = 0.0451 | – | – | 2.84
305.65 K, x1 = 0.0999 | – | – | 6.89
305.65 K, x1 = 0.143 | – | – | 10.89
305.65 K, x1 = 0.2051 | – | – | 17.8
305.65 K, x1 = 0.3064 | – | – | 30.43
305.65 K, x1 = 0.4879 | – | – | 43.74
305.65 K, x1 = 0.6684 | – | – | 44.91
305.65 K, x1 = 0.974 | – | – | 38.76
308.15 K, x1 = 0.0122 | – | – | 1.12
308.15 K, x1 = 0.0123 | – | 1611.9 | –
308.15 K, x1 = 0.0451 | – | – | 2.62
308.15 K, x1 = 0.0453 | – | 1753.1 | –
308.15 K, x1 = 0.0999 | – | – | 6.28
308.15 K, x1 = 0.1005 | – | 1750.2 | –
308.15 K, x1 = 0.143 | – | – | 9.83
308.15 K, x1 = 0.1439 | – | 1716.8 | –
308.15 K, x1 = 0.2051 | – | – | 15.99
308.15 K, x1 = 0.3064 | – | – | 27.04
308.15 K, x1 = 0.4879 | – | – | 38.47
308.15 K, x1 = 0.6684 | – | – | 39.77
308.15 K, x1 = 0.974 | – | – | 34.5
